Experimental data from paper PMC7555825, “New Insights of the Zn(II)-Induced P2 × 4R Positive Allosteric Modulation: Role of Head Receptor Domain SS2/SS3, E160 and D170” (International Journal of Molecular Sciences, 2020).
Positions count from the first letter of the chain named.

Assays:
rP2 × 4R C132A mutant = molecular target: T1, rP2 × 4R C132A mutant (Rattus norvegicus, UniProt P51577, C132A); assay: ATP concentration–response curves, voltage clamp, C132A mutant; assay type: cell-based; settings: for EC50: ATP EC50, C132A
T1 construct: expressed in transfected cells; host or cells: Xenopus laevis oocytes
T1 sequence (P51577 1-388 C132A): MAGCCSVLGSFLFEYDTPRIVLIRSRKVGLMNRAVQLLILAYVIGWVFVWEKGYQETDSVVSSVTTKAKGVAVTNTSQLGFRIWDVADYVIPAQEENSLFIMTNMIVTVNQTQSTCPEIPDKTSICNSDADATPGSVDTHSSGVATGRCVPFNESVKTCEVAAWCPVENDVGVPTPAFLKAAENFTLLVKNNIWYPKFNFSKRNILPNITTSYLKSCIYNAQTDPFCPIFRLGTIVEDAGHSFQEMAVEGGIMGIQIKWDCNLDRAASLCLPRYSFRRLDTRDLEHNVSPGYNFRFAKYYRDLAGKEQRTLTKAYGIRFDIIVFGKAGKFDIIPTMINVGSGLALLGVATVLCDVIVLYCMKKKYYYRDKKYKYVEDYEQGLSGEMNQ

[1] = molecular target: T2, rP2 × 4R C126A/C149A mutant (Rattus norvegicus, UniProt P51577, C126A/C149A); assay: ATP concentration–response curves, voltage clamp, C126A/C149A double mutant; assay type: cell-based; settings: for EC50: ATP EC50, C126A/C149A
T2 construct: host or cells: Xenopus laevis oocytes
T2 sequence (P51577 1-388 C126A/C149A): T1 sequence (P51577 1-388 C132A) with C126A, A132C, C149A

[2] = molecular target: T3, rP2 × 4R C132T/C159T mutant (Rattus norvegicus, UniProt P51577, C132T/C159T); assay: ATP concentration–response curves, voltage clamp, C132T/C159T double mutant; assay type: cell-based
T3 construct: expressed in transfected cells; host or cells: Xenopus laevis oocytes
T3 sequence (P51577 1-388 C132T/C159T): T1 sequence (P51577 1-388 C132A) with A132T, C159T

rP2 × 4R C126A mutant = molecular target: T4, rP2 × 4R C126A mutant (Rattus norvegicus, UniProt P51577, C126A); assay: ATP concentration–response curves, voltage clamp, C126A mutant
T4 sequence (P51577 1-388 C126A): T1 sequence (P51577 1-388 C132A) with C126A, A132C

rP2 × 4R C149A mutant = molecular target: T5, rP2 × 4R C149A mutant (Rattus norvegicus, UniProt P51577, C149A); assay: ATP concentration–response curves, voltage clamp, C149A mutant; assay type: cell-based; settings: for EC50: ATP EC50, C149A
T5 construct: host or cells: Xenopus laevis oocytes
T5 sequence (P51577 1-388 C149A): T1 sequence (P51577 1-388 C132A) with A132C, C149A

[3] = molecular target: T6, rP2 × 4R C132S/C159S mutant (Rattus norvegicus, UniProt P51577, C132S/C159S); assay: ATP concentration–response curves, voltage clamp, C132S/C159S double mutant; assay type: cell-based
T6 construct: host or cells: Xenopus laevis oocytes
T6 sequence (P51577 1-388 C132S/C159S): T1 sequence (P51577 1-388 C132A) with A132S, C159S

Row | EC50 (rP2 × 4R C132A mutant; +10 µM Zn(II)) | EC50 (rP2 × 4R C132A mutant; control) | EC50 ([1]; +10 µM Zn(II)) | EC50 ([1]; control) | EC50 ([2]; control) | Imax ([2]; control) | EC50 (rP2 × 4R C126A mutant; ATP EC50, C126A, +10 µM Zn(II)) | Imax (rP2 × 4R C126A mutant; C126A, +10 µM Zn(II)) | EC50 (rP2 × 4R C149A mutant; +10 µM Zn(II)) | EC50 (rP2 × 4R C149A mutant; control) | Imax (rP2 × 4R C149A mutant; C149A, +10 µM Zn(II)) | EC50 ([3]; control) | SMILES | Zn(II) modulation of the mutant (rP2 × 4R C132A mutant; C132A, 10 µM Zn(II)) | fold decrease in ATP EC50 by Zn(II) ([1]; C126A/C149A, 10 µM Zn(II)) | fold ATP EC50 reduction by Zn(II) ([2]; 10 µM Zn(II)) | fold reduction in ATP EC50 by Zn(II) (rP2 × 4R C126A mutant; C126A, 10 µM Zn(II)) | fold ATP EC50 decrease by Zn(II) (rP2 × 4R C149A mutant; C149A, 10 µM Zn(II)) | fold reduction in ATP EC50 by Zn(II) ([3]; 10 µM Zn(II))
1 | 19.9 ± 13.4 µM | 10.2 ± 3.8 µM | 10.1 ± 4.1 µM | 22.9 ± 6.7 µM | 27.4 ± 13.6 µM | 3.2 ± 0.7 µA | 9.3 ± 3 µM | 11.7 ± 4.8 µA | 22.5 ± 7.5 µM | 39 ± 16.7 µM | 10.7 ± 3.5 µA | 20.5 ± 5 µM | Nc1ncnc2c1ncn2[C@@H]1O[C@H](COP(=O)(O)OP(=O)(O)OP(=O)(O)O)[C@@H](O)[C@H]1O [ATP, adenosine triphosphate] | – | – | – | – | – | –
2 | – | – | – | – | – | – | – | – | – | – | – | – | [Cl-].[Cl-].[Zn+2] [Zn(II), zinc chloride (ZnCl2)] | resistant to Zn(II) modulation | 2.26 fold | 5.5 fold | 4.1 fold | 1.73 fold | 3.41 fold
